Myosin heavy chain and Tropomyosin data for 9 substances are collected here from US10632177B2, “Myoblast differentiation promoter” (NITTA GELATIN INC., priority 2012, dated 2020).

Non-standard residues stand in square brackets, D forms with d. No end group written: not given here. Hyp = O=C(O)[C@@H]1C[C@@H](O)CN1

For the assay, the system named is C2C12 myoblast. In words: Myoblast differentiation promotion test in myoblast culture (Western blotting of differentiation markers). The following applies: Western blot band, numerical value in relation to 100 = control, 100 μM final concentration, eight days exposure. Type of assay: cell-based, mouse. The method, then: Myoblast Differentiation Promotion Test in Myoblast Culture
For culture of C2C12 myoblast derived from mouse, a D-MEM culture medium containing 10% FBS, 100 units/mL sodium penicillin G, 100 μg/mL streptomycin and 1.0 g/L NaHCO3 (D-MEM culture medium (10% FBS, +P/S)) was used. Culture was conducted in an incubator at 37° C. containing 95% air and 5% CO2. In the condition that C2C12 myoblast was 90% confluent, the culture medium was replaced by a D-MEM culture medium including 2% horse serum (HS), 100 units/mL sodium penicillin G, 100 μg/mL streptomycin and 1.0 g/L NaHCO3 (D-MEM culture medium (2% HS+P/S)), and then the D-MEM culture medium (2% HS+P/S) replacement was repeated every two days to lead to differentiation into myotube cells. The peptides of Examples 1 to 21 and Comparative Examples 1 to 3 were added in a final concentration of 100 μM to the culture medium every the culture medium replacement, and cells were continuously exposed thereto for eight days.
The Western blotting method was conducted in the following procedure. The cells used for protein measurement were washed twice with PBS at the time of recovery, and the cells were scraped with a cell scraper and transferred to a tube, and centrifuged at 4° C. and at 250×g for 3 minutes, and then PBS was completely removed. For each tube, the cells were suspended in 100 μL of a buffer (20 mM HEPES-NaOH (pH 7.5), 0.5% NP-40, 1 mM EDTA, 100 μM AEBSF, 1 μg/mL aprotinin, 10 μg/mL leupeptin, 1 mM DTT, 1 mM sodium ortho-vanadate, 10 mM sodium fluoride, 10 μM ammonium molybdate, 10 mM sodium pyrophosphate), and then crushed under ice cooling for 5 seconds three times for each sample by using an ultrasonic disperser, followed by quantification of the amount of a protein. Quantification of the amount of a protein was conducted according to the method of Bradford using bovine serum albumin as a standard protein. After end of SDS-PAGE, a blotting device was used to conduct electro-transferring at 1.5 mA per 1 cm^2 of a membrane for 1 hour on a PVDF membrane equilibrated with methanol and subjected to pre-wetting by infiltration with a transfer buffer (48 mM Tris, 39 mM glycine). After end of the transferring, the PVDF membrane was blocked with PBS (−) containing 6% skim milk for 1 hour. A primary antibody was diluted in the following manner, and an antigen-antibody reaction was conducted overnight at 4° C. A peroxidase-conjugated secondary antibody against each primary antibody was diluted in PBS (−) containing 6% skim milk in the ratios: mouse anti-myosin heavy chain monoclonal antibody (MF20) culture supernatant 1/2000, mouse anti-tropomyosin monoclonal antibody (CH1) culture supernatant 1/2000, rabbit anti-GAPDH polyclonal antibody 1/3000, peroxidase-conjugated anti-mouse IgG 1/5000, and peroxidase-conjugated anti-rabbit IgG 1/2000, allowed to react for 30 minutes, and washed three times with PBS (−) for 10 minutes. Then the membrane was immersed in Immobilon™ Western Chemiluminescent HRP Substrate for 3 minutes, and detected by LAS-4000 (GE Healthcare, Buckinghamshire, UK). A band was converted into numbers by imageJ, and expressed in a numerical value in relation to 100 which was the value of the control.
In general terms: Immunoblotting shows a protein as a band on a membrane.
“Ala-Hyp [Comparative Example 1, reference compound]” displayed a Myosin heavy chain of 62 and a Tropomyosin of 44.
Ala-[Hyp]-Gly [Example 1]: the Myosin heavy chain was 218 and the Tropomyosin is reported as 191.
Take Glu-Hyp [Example 4]: the Myosin heavy chain is listed as 214 and the Tropomyosin amounted to 140.
Taken in the same sequence, the figures for Gly-Pro-[Hyp] [Example 5] were 217 and 165.
Taken in the same sequence, the figures for Hyp-Gly [Example 7] were 334 and 419.
For Leu-Hyp [Example 3], in that order: 143 and 195.
The substance Pro-Ala [Example 6] showed a Myosin heavy chain of 131 and a Tropomyosin of 169.
Pro-Hyp [Example 8]: the Myosin heavy chain is reported as 278 and the Tropomyosin came to 307.
[Hyp]-Gly-Pro [Example 2] yielded a Myosin heavy chain of 166 and a Tropomyosin of 181.
